Each structure is given as a SMILES string. Values joined by “and” are separate entries in the source; they are usually repeats but may differ in a detail not shown here. Identical values can stand only once. Like-named read-outs stand apart in the source and are kept apart here.

What all share (assay type): cell-based, human
For series [1], the system named is neural crest cells (NCC). The series can be described thus: Intracellular ATP measurement (CellTiterGlo). To be noted: at BMC10 (V) of cMINC; for ATP levels: after 60 min. As for the experimental part: Cells were seeded at a density of 20,000 cells/well. The NCCs were treated with the BMC10 (V) of the cMINC screen for one hour, six hours or 24 h. Then, a CellTiterGlo-Triton mix was prepared. Therefore, a 0.5% Triton solution in PBS was prepared, and the commercial reagent mix CellTiterGlo 2.0 (Promgea, Madison, WI, USA) was added in a 1:1 ratio. An amount of 50 µL/well of the mix was added to 100 µL of medium. The plate was shaken for two minutes, and 100 µL of the cell mixture was transferred to a white measurement plate. For the blank value, only medium with the mix was measured. Luminescence data of samples were normalized to DMSO solvent controls, and the ATP data are given in % relative to “untreated cells”.
For orientation: Cellular ATP, detected with luciferase, serves as a proxy for viable cell number.

Series [2] relates to neural crest cells (NCC). Description: cMINC (UKN2) assay: circular migration of neural crest cells, with viability. To be noted: for Migration / Viability: Pre-Screen 1, single concentration 1:1000 of stock, in most cases 100 μM; for BMC25 (M): migration; for Ratio: migration/cytotoxicity ratio, hit requires ≥ 1.3, HTC used where no viability effect. As for the experimental part: The research group initially developed the first version of the test in 2012 [40]. The test has been further improved and characterized. To perform the cMINC assay, NCCs were thawed in N2-S Medium and seeded on the day of migration-1 (DoM-1) on a 96-well polystyrene plate (Corning, Glendale, AZ, USA) around stoppers, to create a cell-free area of 2 mm diameter (Platypus Technologies, Madison, WI, USA). The cells were resuspended in N2-S Medium supplemented with […] of the cytokines EGF and FGF, and then counted and seeded around the stoppers at a density of 95,000 cells/cm^2. After 24 h, the stoppers were removed, and the medium was exchanged. The removal of the stoppers initiates migration of the NCCs into the cell-free area. For the treatment, the 5x-concentrated toxicant solution was added to the medium 24 h after stopper removal.
On day 2, cells were stained with 533 nM calcein-AM and 1 μg/mL H-33342 (both from Sigma, Steinheim, Germany) and observed using two different channels on the Cellomics ArrayScan VTI imaging microscope (Thermo Fisher, Pittsburgh, PA, USA) to assess viability and migration. For the migration, four pictures were taken in the region of interest (ROI) (5× magnification objective). Migration data were obtained using the software “Ringassay” (http://invitrotox.uni-konstanz.de/ (accessed on 3 November 2024)), which can estimate the previously cell-free area and count the number of H-33342 and calcein-AM double-positive cells. Cell viability was assessed by taking four pictures outside of the ROI with 10× magnification objective. Viable cells were defined as H-33342 and calcein-AM double-positive cells and calculated by an automatic algorithm of the ArrayScan VTI 700 Series software as described earlier. […] Each plate included wells for testing of negative (0.1% DMSO solvent) and positive controls (200 nM cytochalasin D) in addition to the wells for blinded samples. The data from control wells were used as acceptance criteria of the assay. […] Renormalization of the concentration–response curves was performed after a visual inspection that the two lowest test-concentration data points are in the no-effect range. The average response (relative to solvent control) of the lowest two test concentrations was calculated, and all other data points of the same curve were divided by this average value. The calculations of the benchmark concentrations 10 for viability (BMC10 (V)) and 25 for migration (BMC25 (M)) were performed with the online available BMC software (http://invitrotox.uni-konstanz.de/ (accessed on 4 November 2024)).

Series [3] has as its system neural crest cells (NCC). The series can be described thus: Seahorse oxygen consumption rate (mitochondrial stress test). The conditions noted are these: at BMC10 (V) of cMINC, after basal respiration recording. As for the experimental part:
The Seahorse bioanalyzer simultaneously measures cellular oxygen consumption rates (OCR) and extracellular acidification rates (ECAR). Therefore, NCCs were seeded at least two days prior to the assays at a density of 80,000 cells/well on Seahorse XF96 V3 PS Cell Culture Microplates (Agilent, Santa Clara, CA, USA) in either glucose medium or galactose medium. After 24 h, the medium was exchanged. For the real-time ATP production rate and mitochondrial stress assay, the cartridge was hydrated at 0% CO2 and 37 °C, and the seahorse was turned on to stabilize the temperature one day prior. The medium was changed to Seahorse XF DMEM Medium (Agilent, Santa Clara, CA, USA) supplemented with 2 mM L-glutamine, 1 mM pyruvate and 18 mM glucose or galactose 1 h before the start of the assays. Directly before the start of the assay, the medium was exchanged again. The sensor cartridge was loaded with the test compounds anchored to the BMC10 (V) of the cMINC screen and the recommended concentrations of calibration compounds for a mitochondrial stress test. These were 5 μM oligomycin, 15 μM carbonyl cyanide p-trifluoro methoxyphenylhydrazone (FCCP) and 5 μM rotenone plus 5 μM antimycin A. Additionally, 1 μg/mL H-33342 was added to the rotenone and antimycin A injection to perform afterwards a cell count (Cellomics, Waltham, MA, USA), to which the data were normalized. Six technical replicates were used for control conditions, and three technical replicates were used for other samples. The software Seahorse Analytics (Agilent, Santa Clara, CA, USA) was used for the evaluation (https://seahorseanalytics.agilent.com (accessed on 30 October 2024)).

The subject of series [4] is neural crest cells (NCC). The series can be described thus: Transwell migration assay (FBS chemoattractant, 6 h). To be noted: 200 nM, positive control. As for the experimental part: Cells were seeded at a density of 50,000 cells/well (150,000 cells/cm^2) into the upper chamber (insert) of the 96-well transwell plates (pore size 8 μm, polycarbonate membrane, Corning, Glendale, AZ, USA). The cells were stimulated to migrate through the membrane by medium supplemented with 5% of the chemoattractant fetal bovine serum (FBS) (PAA Laboratories, Pasching, Austria) in the lower chamber (reservoir). For testing of migration inhibition upon compound treatment, compounds were used at a concentration of BMC10 (V) of prior cMINC testing. Three technical replicates per condition were used. As a control for “unstimulated” migration, medium without any chemoattractant was tested. As an endpoint specific control for “inhibited” migration, CytoD with a concentration of 200 nM was used. After 6 h incubation time, the medium was aspirated, and reservoirs were washed with DPBS. Afterwards, reservoirs were filled with EDTA dissociation solution (DPBS supplemented with 0.1% 0.5 M EDTA UltraPure pH 8.0 (Thermo Fisher Scientific, Waltham, MA, USA), and 0.18% NaCl) containing 0.25 μL/mL calcein-AM and incubated for 30 min at 37 °C. The plates were then centrifuged at 300× g for 5 min (1200 rpm, Heraeus Multifuge 1 S-R, ThermoScientific) to remove migrated cells from the membrane. The tray with 96 wells of permeable inserts was removed, and the receiver plate was measured in the spectrophotometer (TECAN, Männedorf, Switzerland) with an emission wavelength of 520 nm. After subtraction of the blank values, the number of migrated cells was normalized to that of cells stimulated with FBS.
To perform the experiments under mitochondria-dependent conditions, the cells were handled exactly in the same way, but the medium was adapted. The N2-S medium was adjusted, so that no glucose was present but galactose. The medium consisted of SILAC^TM Advanced DMEM/-F12 FLEX (Gibco/Fisher Scientific, Hampton, NH, USA), 15 μg/mL insulin, 400 μM GlutaMAX, 0.7 mM L-Arginine, 0.5 mM L-Lysine, 21.5 µM Phenol Red, 20 nM progesterone, 100 μM putrescine and 30 nM selenium, 92.5 μg/mL apotransferrin, 4.7 mg/mL galactose (18 mM). The cytokines 20 ng/mL EGF and 20 ng/mL FGF2 were always freshly added to each run.

The mark [5] stands for this setting: viability, primary screen, 24 h exposure, * = no effect up to highest tested concentration.
Setting [6] is: Homo sapiens, 24 h, primary screen, 24 h exposure, read-out: BMC25.

Turning to `CO/C=C(/C(=O)OC)c1ccccc1Oc1cc(Oc2ccccc2C#N)ncn1` [Azoxystrobin, azoxystrobin], the ATP levels entry in series [1] was “did not decrease”. Also, in series [2], the Migration is reported as 59 % of control, the Viability is reported as 95 % of control and the Ratio is 3.5. In addition, in series [2] (primary screen, 24 h exposure), the “BMC25 (M)” value is 2.9e-05 M and 3e-05 M. Besides, in series [2] (primary screen), the “effect on viability in the tested concentration range” value is “did not reduce viability at all”. The “BMC10 (V)” value in series [2] (setting [5]) is greater than 100 µM.
`CCOCn1c(-c2ccc(Cl)cc2)c(C#N)c(Br)c1C(F)(F)F` [Chlorfenapyr, chlorfenapyr]: in series [1] (after 1 h), the “decline of ATP” value is recorded as greater than 25%. Besides, the “decline of ATP” value in series [1] (after 24 h) was greater than 90%. The BMC25 (M) in series [2] (setting [6]) was determined as 5.1e-06 M. Also, in series [2], the Migration is on record as 0 % of control and the Ratio came to 1.3. Besides, the “BMC10 (V)” value in series [2] (human, 24 h) amounted to 6.8 µM. In series [3], the “effect on oxygen consumption rate (OCR) after injection” value (“effect on oxygen consumption rate” below) is reported as “no decrease in OCR”.
Take `Cc1ccc(-c2c(Cl)nc(C#N)n2S(=O)(=O)N(C)C)cc1` [Cyazofamid, cyazofamid]: the BMC25 (M) in series [2] (setting [6]) came out at 7.8e-06 M. In series [2], the Migration was 29 % of control and the Ratio came out at 2.6. The “BMC10 (V)” value in series [2] (human, 24 h) was found to be 20 µM. Further, the “effect on oxygen consumption rate” value in series [3] was “the OCR increased continuously”.
Regarding `Cc1nn(C)c(Oc2ccccc2)c1C=NOCc1ccc(C(=O)OC(C)(C)C)cc1` [Fenpyroximate, fenpyroximate], the ATP levels entry in series [1] was “did not decrease”. For the same molecule, the “decrease in ATP levels” value in series [1] (after 6 h) is greater than 25%. Also, the BMC25 (M) in series [2] (setting [6]) came out at 3e-06 M. In addition, in series [2], the Migration is reported as 38 % of control, the Viability is given as 95 % of control and the Ratio is given as 1.9. Also, in series [2] (setting [5]), the “BMC10 (V)” value is 7 µM and 6.6 µM. Moreover, the “effect on oxygen consumption rate” value in series [3] is “completely shut down the mitochondrial respiration”.
In the case of `O=[N+]([O-])c1cc(C(F)(F)F)c(Cl)c([N+](=O)[O-])c1Nc1ncc(C(F)(F)F)cc1Cl` [Fluazinam, fluazinam], in series [1] (after 1 h), the “decline of ATP” value is on record as greater than 25%. Besides, the “decline of ATP” value in series [1] (after 24 h) is greater than 90%. The BMC25 (M) in series [2] (setting [6]) is 4e-07 M. Further, in series [2], the Migration is recorded as 0 % of control, the Viability is given as 2 % of control and the Ratio was found to be 2.0. For the same molecule, the “BMC10 (V)” value in series [2] (setting [5]) came out at 0.8 µM. In addition, the “effect on oxygen consumption rate” value in series [3] was “no decrease in OCR”.
As for `CO/N=C(/C1=NOCCO1)c1ccccc1Oc1ncnc(Oc2ccccc2Cl)c1F` [Fluoxastrobin, fluoxastrobin], the BMC25 (M) in series [2] (setting [6]) is 2e-05 M. In series [2], the Migration is on record as 60 % of control, the Viability is 95 % of control and the Ratio is recorded as 4.6. The “effect on viability in the tested concentration range” value in series [2] (primary screen) was “did not reduce viability at all”. Also, the “BMC10 (V)” value in series [2] (setting [5]) is greater than 100 µM.
In the case of `CO/N=C(/C(=O)OC)c1ccccc1COc1ccccc1C` [Kresoxim-methyl, kresoxim-methyl], the BMC25 (M) in series [2] (setting [6]) amounted to 2.7e-05 M. In series [2], the Migration is 72 % of control, the Viability was 33 % of control and the Ratio is 1.6. For the same molecule, the “BMC10 (V)” value in series [2] (setting [5]) was found to be 43 µM.
Turning to `COC(=O)N(OC)c1ccccc1COc1ccn(-c2ccc(Cl)cc2)n1` [Pyraclostrobin, pyraclostrobin], in series [1], the ATP levels entry was “did not decrease”. For the same molecule, in series [2] (setting [6]), the BMC25 (M) is 1.7e-05 M. In series [2], the Migration is given as 72 % of control, the Viability is reported as 97 % of control and the Ratio came out at 2.6. Further, the “BMC10 (V)” value in series [2] (setting [5]) is 44 µM.
Turning to `CC(C)(C)c1ccc(CSc2cnn(C(C)(C)C)c(=O)c2Cl)cc1` [Pyridaben, pyridaben], the BMC25 (M) in series [2] (setting [6]) is 4.7e-05 M. Besides, in series [2], the Migration was 58 % of control and the Ratio was determined as 1.8. For the same molecule, in series [2] (human, 24 h), the “BMC10 (V)” value was determined as 83 µM. In addition, the “effect on oxygen consumption rate” value in series [3] was “completely shut down the mitochondrial respiration”.
With `C=C(C)[C@H]1Cc2c(ccc3c2O[C@@H]2COc4cc(OC)c(OC)cc4[C@@H]2C3=O)O1` [Rotenone, rotenone], the IC25 in series [2] (Homo sapiens, 24 h, read-out: BMC25 (M)) is 6e-08 M. In series [2], the Migration is recorded as 0 % of control, the Viability is recorded as 0 % of control and the Ratio worked out at 1.9. Further, the “BMC10 (V)” value in series [2] (setting [5]) was determined as 0.1 µM.
For `CON=C(C(=O)OC)c1ccccc1CON=C(C)c1cccc(C(F)(F)F)c1` [Trifloxystrobin, trifloxystrobin], in series [2] (setting [6]), the BMC25 (M) is 1.3e-05 M. Besides, in series [2], the Migration was 85 % of control and the Ratio is 1.4. Further, the “BMC10 (V)” value in series [2] (human, 24 h) is 18 µM.
With `C=C1[C@@H](C)[C@H]2[C@H](Cc3ccccc3)NC(=O)[C@]23[C@H](OC(C)=O)/C=C/[C@@](C)(O)C(=O)[C@@H](C)C/C=C/[C@H]3[C@@H]1O` [cytochalasin D, Cytochalasin D], the reduced migration in series [4] was 75%.
